Data on 14 compounds can be found in EP0546013B1, “GLUCAGON ANALOGS WITH ASP-9 REPLACEMENTS OR DELETIONS” (THE ROCKEFELLER UNIVERSITY, priority 1990, dated 1997).

The test system of assay [1] is adenylate cyclase. To be noted: measured as amides; for pA2 Value: negative logarithm of the antagonist concentration that reduces the response to 1 unit of agonist to that of 0.5 unit; for % Relative Activity: relative potency in stimulating adenylate cyclase. The method, then: The inhibition index is the molar ratio of antagonist to agonist which reduces the biological response to one half of the value for the agonist in the absence of antagonist. It will be discussed more fully hereinafter.
Adenylate Cyclase Assay. The assay on liver membranes was performed according to Salomon et al. [Salomon, Y., Londos, C. & Rodbell, M. Anal. Biochem. 58, 541, 548 (1974)].
The purpose of the adenylate cyclase assay is to measure the ability of the compound under test to stimulate the activity of adenylate cyclase. The assays are used to measure relative potency, maximum activity and inhibition index.
The inhibition index, defined above, was determined from adenylate cyclase assays by two different protocols. • 1. A glucagon standard curve for cAMP vs glucagon concentration was established. Then another glucagon assay curve was measured in the presence of a constant amount of antagonist. […] A series of tubes were set up containing an amount of glucagon which will produce 90% of maximum response. Increasing amounts of antagonist were then added and the concentration that reduced the response to 45% of maximum was determined.

Assay [2] relates to adenylate cyclase. To be noted: prior-art antagonist, background; cited from earlier work.
The subject of assay [3] is another binding system in the hepatocyte membrane. Particulars: prior-art antagonist, background; cited from earlier work.
The next assay concerns glucagon receptor. Particulars: prior-art antagonist, background; cited from earlier work.

Ends that are not written are not given here. Some results are limits rather than exact numbers.

As for `CSCC[C@H](NC(=O)[C@H](CC(C)C)NC(=O)[C@H](Cc1c[nH]c2ccccc12)NC(=O)[C@H](CCC(N)=O)NC(=O)[C@@H](NC(=O)[C@H](Cc1ccccc1)NC(=O)[C@H](CC(=O)O)NC(=O)[C@H](CCC(N)=O)NC(=O)[C@H](C)NC(=O)[C@H](CCCNC(=N)N)NC(=O)[C@H](CCCNC(=N)N)NC(=O)[C@H](CO)NC(=O)[C@H](CC(=O)O)NC(=O)[C@H](CC(C)C)NC(=O)[C@H](Cc1ccc(O)cc1)NC(=O)[C@H](CCCCN)NC(=O)[C@H](CO)NC(=O)[C@H](Cc1ccc(O)cc1)NC(=O)[C@@H](CC(=O)O)NC(=O)[C@H](CO)NC(=O)[C@@H](NC(=O)[C@H](Cc1ccccc1)NC(=O)[C@@H](NC(=O)CNC(=O)[C@H](CCC(N)=O)NC(=O)[C@@H](N)CO)[C@@H](C)O)[C@@H](C)O)C(C)C)C(=O)N[C@@H](CC(N)=O)C(=O)N[C@H](C(N)=O)[C@@H](C)O` [compound 10, des-His^1[D-Asp^9]], in the assay with adenylate cyclase [1], the “pA2 Value” is 5.9 and the “% Relative Activity” value is recorded as under 0.0028%.

In the case of `CSCC[C@H](NC(=O)[C@H](CC(C)C)NC(=O)[C@H](Cc1c[nH]c2ccccc12)NC(=O)[C@H](CCC(N)=O)NC(=O)[C@@H](NC(=O)[C@H](Cc1ccccc1)NC(=O)[C@H](CC(=O)O)NC(=O)[C@H](CCC(N)=O)NC(=O)[C@H](C)NC(=O)[C@H](CCCNC(=N)N)NC(=O)[C@H](CCCNC(=N)N)NC(=O)[C@H](CO)NC(=O)[C@H](CC(=O)O)NC(=O)[C@H](CC(C)C)NC(=O)[C@H](Cc1ccc(O)cc1)NC(=O)[C@H](CCCCN)NC(=O)[C@H](CO)NC(=O)[C@H](Cc1ccc(O)cc1)NC(=O)[C@@H](CCC(=O)O)NC(=O)[C@H](CO)NC(=O)[C@@H](NC(=O)[C@H](Cc1ccccc1)NC(=O)[C@@H](NC(=O)CNC(=O)[C@H](CCC(N)=O)NC(=O)[C@@H](N)CO)[C@@H](C)O)[C@@H](C)O)C(C)C)C(=O)N[C@@H](CC(N)=O)C(=O)N[C@H](C(N)=O)[C@@H](C)O` [compound 11, des-His^1[D-Glu^9]], in the assay on adenylate cyclase [1], the “pA2 Value” worked out at 5.4 and the “% Relative Activity” value is under 0.0037%.

For `COC(=O)CC[C@H](NC(=O)[C@H](CO)NC(=O)[C@@H](NC(=O)[C@H](Cc1ccccc1)NC(=O)[C@@H](NC(=O)CNC(=O)[C@H](CCC(N)=O)NC(=O)[C@@H](N)CO)[C@@H](C)O)[C@@H](C)O)C(=O)N[C@@H](Cc1ccc(O)cc1)C(=O)N[C@@H](CO)C(=O)N[C@@H](CCCCN)C(=O)N[C@@H](Cc1ccc(O)cc1)C(=O)N[C@@H](CC(C)C)C(=O)N[C@@H](CC(=O)O)C(=O)N[C@@H](CO)C(=O)N[C@@H](CCCNC(=N)N)C(=O)N[C@@H](CCCNC(=N)N)C(=O)N[C@@H](C)C(=O)N[C@@H](CCC(N)=O)C(=O)N[C@@H](CC(=O)O)C(=O)N[C@@H](Cc1ccccc1)C(=O)N[C@H](C(=O)N[C@@H](CCC(N)=O)C(=O)N[C@@H](Cc1c[nH]c2ccccc12)C(=O)N[C@@H](CC(C)C)C(=O)N[C@@H](CCSC)C(=O)N[C@@H](CC(N)=O)C(=O)N[C@H](C(N)=O)[C@@H](C)O)C(C)C` [compound 12, des-His^1[Glu^9-(OCH3)]], in the assay with adenylate cyclase [1], the “pA2 Value” is on record as 7.35 and the “% Relative Activity” value came to 0.011%.

As for `CCCC[C@H](NC(=O)[C@H](CO)NC(=O)[C@@H](NC(=O)[C@H](Cc1ccccc1)NC(=O)[C@@H](NC(=O)CNC(=O)[C@H](CCC(N)=O)NC(=O)[C@@H](N)CO)[C@@H](C)O)[C@@H](C)O)C(=O)N[C@@H](Cc1ccc(O)cc1)C(=O)N[C@@H](CO)C(=O)N[C@@H](CCCCN)C(=O)N[C@@H](Cc1ccc(O)cc1)C(=O)N[C@@H](CC(C)C)C(=O)N[C@@H](CC(=O)O)C(=O)N[C@@H](CO)C(=O)N[C@@H](CCCNC(=N)N)C(=O)N[C@@H](CCCNC(=N)N)C(=O)N[C@@H](C)C(=O)N[C@@H](CCC(N)=O)C(=O)N[C@@H](CC(=O)O)C(=O)N[C@@H](Cc1ccccc1)C(=O)N[C@H](C(=O)N[C@@H](CCC(N)=O)C(=O)N[C@@H](Cc1c[nH]c2ccccc12)C(=O)N[C@@H](CC(C)C)C(=O)N[C@@H](CCSC)C(=O)N[C@@H](CC(N)=O)C(=O)N[C@H](C(N)=O)[C@@H](C)O)C(C)C` [compound 18, des - His^1 [Nle^9] glucagon amide], in the assay with adenylate cyclase [1], the “pA2 Value” worked out at 7.6 and the “% Relative Activity” value is given as under 0.0012%.

Consider “DSQGTFTSHYSKYLDSRRAQDFVQWLMNT-NH2 [compound 9, Asp^1His^9]”, for which, in the assay with adenylate cyclase [1], the “pA2 Value” stood at 6.3 and the “% Relative Activity” value is recorded as under 0.0009%.

For “HSQGTFTSYSKYLDSRRAQDFVQWLMNT-NH2 [compound 2, des-Asp^9]”, in the assay on adenylate cyclase [1], the “pA2 Value” was 7.2 and the “% Relative Activity” value was 1.04%.

With “Nα- trinitrophenyl [12-homoarginine] glucagon”, in the assay on adenylate cyclase [2], the “activation of adenylate cyclase” value was “without significant activation of adenylate cyclase”. The “production of inositol trisphosphate and calcium ions” value in assay [3] is “activates another binding system in the hepatocyte membrane leading to the production of inositol trisphosphate and calcium ions”. Besides, the “binding to the glucagon receptor” value in the assay with glucagon receptor was “does bind to the glucagon receptor”.

As to “SQGTFTSFYSKYLDSRRAQDFVQWLMNT-NH2 [compound 19, des-His^1[Phe^9]]”, in the assay with adenylate cyclase [1], the “pA2 Value” came out at 6.2 and the “% Relative Activity” value is under 0.0003%.

As for “SQGTFTSGYSKYLDSRRAQDFVQWLMNT-NH2 [compound 15, des - His^1 [Gly^9] glucagon amide]”, in the assay on adenylate cyclase [1], the “pA2 Value” is reported as 6.24 and the “% Relative Activity” value is given as under 0.006%.

For “SQGTFTSHYSKYLDSRRAQDFVQWLMNT-NH2 [compound 17, des-His^1[His^9]]”, in the assay on adenylate cyclase [1], the “pA2 Value” is listed as 7.0 and the “% Relative Activity” value is reported as 0.011%.

In the case of “SQGTFTSKYSKYLDSRRAQDFVQWLMNT-NH2 [compound 16, des - His^1 [Lys^9] glucagon amide]”, in the assay with adenylate cyclase [1], the “pA2 Value” turned out to be 7.35 and the “% Relative Activity” value is reported as under 0.0012%.

Take “SQGTFTSNYSKYLDSRRAQDFVQWLMNT-NH2 [compound 13, des-His^1[Asn^9]]”: in the assay on adenylate cyclase [1], the “pA2 Value” is 6.52 and the “% Relative Activity” value is reported as under 0.0026%.

Regarding “SQGTFTSQYSKYLDSRRAQDFVQWLMNT-NH2 [compound 14, des-His^1[Gln^9]]”, in the assay with adenylate cyclase [1], the “pA2 Value” was 8.21 and the “% Relative Activity” value is listed as under 0.003%.

For “SQGTFTSYSKYLDSRRAQDFVQWLMNT-NH2 [compound 20, des-His^1des-Asp^9]”, in the assay on adenylate cyclase [1], the “pA2 Value” came out at 5.5 and the “% Relative Activity” value is under 0.0022%.
